Measured values as given in PMC11574760, “Altering Active-Site Loop Dynamics Enhances Standalone Activity of the Tryptophan Synthase Alpha Subunit” (ACS Catalysis, 2024).

B1: ZmBX1 (Zea mays) (protein)
chain: SRPVSDTMAALMAKGKTAFIPYITAGDPDLATTAEALRLLDGCGADVIELGVPCSDPYIDGPIIQASVARALASGTTMDAVLEMLREVTPELSCPVVLLSYYKPIMSRSLAEMKEAGVHGLIVPDLPYVAAHSLWSEAKNNNLELVLLTTPAIPEDRMKEITKASEGFVYLVSVNGVTGPRANVNPRVESLIQEVKKVTNKPVAVGFGISKPEHVKQIAQWGADGVIIGSAMVRQLGEAASPKQGLRRLEEYARGMKNALP
notes: standalone enzyme; construct details only in supplement

What was measured:
Test in all cases: steady-state kinetics, coupled assay with GAP dehydrogenase (NAD+)
[1] = molecular target: T1, ZmTrpA^L6BX1 (ZmTrpA_L6zmBX1) (Zea mays, UniProt B2Y0K4, T232V/V233N/T238P/S243N/G244P/K245R); format: biochemical; settings: retro-aldol cleavage; 100 mM EPPS/KOH pH 7.5, 180 mM KCl, 40 μM PLP, 6 mM NAD+, 20 mM Na3AsO4, 30 °C; no TrpB; cited from earlier work
T1 construct: gene TSA; ZmTrpA with loop 6 replaced by that of ZmBX1; without TrpB
Description: steady-state kinetics, coupled assay with GAP dehydrogenase (NAD+) on ZmTrpA^L6BX1 (ZmTrpA_L6zmBX1)

ZmTrpA^L6BX1 + ZmTrpB = molecular target: T2, ZmTrpA^L6BX1 + ZmTrpB (Zea mays, UniProt B2Y0K4, T232V/V233N/T238P/S243N/G244P/K245R, form not given); format: biochemical; settings: retro-aldol cleavage, 100 mM EPPS/KOH pH 7.5, 180 mM KCl, 40 μM PLP, 6 mM NAD+, 20 mM Na3AsO4, 100 mM L-serine, 30 °C, variant ZmTrpA^SPM4-L6BX1
T2 construct: gene TSA; ZmTrpA with loop 6 of ZmBX1, in complex with ZmTrpB in excess; with Tryptophan synthase beta chain, chloroplastic
Description: steady-state kinetics, coupled assay with GAP dehydrogenase (NAD+) on ZmTrpA^L6BX1 + ZmTrpB

ZmTrpA + ZmTrpB = molecular target: T3, ZmTrpA + ZmTrpB (Zea mays, UniProt B2Y0K4); format: biochemical; settings: retro-aldol cleavage, 100 mM EPPS/KOH pH 7.5, 180 mM KCl, 40 μM PLP, 6 mM NAD+, 20 mM Na3AsO4, 100 mM L-serine, 30 °C
T3 construct: gene TSA; alpha-beta-beta-alpha tryptophan synthase complex, TrpB in excess; construct details only in supplement; with Tryptophan synthase beta chain, chloroplastic
Description: steady-state kinetics, coupled assay with GAP dehydrogenase (NAD+) on ZmTrpA + ZmTrpB

[2] = substrate: O=P(O)(O)OC[C@@H](O)[C@@H](O)c1c[nH]c2ccccc12; format: biochemical, Zea mays; settings: retro-aldol cleavage, 100 mM EPPS/KOH pH 7.5, 180 mM KCl, 40 μM PLP, 6 mM NAD+, 20 mM Na3AsO4, 30 °C, no TrpB
Description: steady-state kinetics, coupled assay with GAP dehydrogenase (NAD+) on ZmBX1

T3 sequence (B2Y0K4 entry or part of it): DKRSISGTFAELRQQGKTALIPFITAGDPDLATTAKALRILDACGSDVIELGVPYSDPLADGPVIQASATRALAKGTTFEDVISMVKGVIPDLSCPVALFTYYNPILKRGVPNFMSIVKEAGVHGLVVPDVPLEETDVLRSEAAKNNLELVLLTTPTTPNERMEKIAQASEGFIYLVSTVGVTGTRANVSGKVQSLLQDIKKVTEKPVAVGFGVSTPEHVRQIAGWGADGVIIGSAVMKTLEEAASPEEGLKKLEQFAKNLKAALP
T3 sequence (P43284 46-443, further chain): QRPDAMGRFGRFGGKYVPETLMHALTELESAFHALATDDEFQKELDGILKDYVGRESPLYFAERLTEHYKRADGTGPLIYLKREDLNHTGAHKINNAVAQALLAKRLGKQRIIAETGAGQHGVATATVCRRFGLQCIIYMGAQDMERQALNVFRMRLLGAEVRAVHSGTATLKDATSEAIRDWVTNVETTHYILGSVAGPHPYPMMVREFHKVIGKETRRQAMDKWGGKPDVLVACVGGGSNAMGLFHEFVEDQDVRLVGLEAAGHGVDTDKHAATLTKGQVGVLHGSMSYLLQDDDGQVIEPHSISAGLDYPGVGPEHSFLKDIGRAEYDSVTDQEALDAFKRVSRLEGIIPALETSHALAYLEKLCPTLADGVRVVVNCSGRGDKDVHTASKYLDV
T2 sequence (P43284 46-443, stated change not applied, form open): as the sequence (P43284 46-443, further chain) above
T2 sequence (B2Y0K4 entry or part of it T232V/V233N/T238P/S243N/G244P/K245R, form open): as the sequence (B2Y0K4 entry or part of it) above, with T179V, V180N, T185P, S190N, G191P, K192R counted along it
T1 sequence (B2Y0K4 entry or part of it T232V/V233N/T238P/S243N/G244P/K245R): as the sequence (B2Y0K4 entry or part of it) above, with T179V, V180N, T185P, S190N, G191P, K192R counted along it

| Molecule | Km [1] | Km (ZmTrpA^L6BX1 + ZmTrpB) | Km (ZmTrpA + ZmTrpB; variant ZmTrpA^SPM4) | Km (ZmTrpA + ZmTrpB; variant ZmTrpA^SPM6) | Km [2] | kcat [2] | kcat/Km [2] |
| --- | --- | --- | --- | --- | --- | --- | --- |
| O=P(O)(O)OC[C@@H](O)[C@@H](O)c1c[nH]c2ccccc12 [indole-glycerol phosphate] | 3.35 ± 0.34 mM | 70 ± 12 µM | 134 ± 9 µM | 103 ± 13.1 µM |  |  |  |
| B1 |  |  |  |  | 11 ± 1.3 µM | 5.2 ± 0.13 s⁻¹ | 474000 ± 56100 M⁻¹ s⁻¹ |
